Laboratory results from patent US11584714B2 (priority 2018, dated 2023).
Structures can show the parent of a compound that is named as a salt. Where two headings read alike, the source gives them in different places.

Assays:
human α-thrombin = human α-thrombin (Homo sapiens (Human), UniProt P00734); experiment: Enzymatic assay for thrombin (Boc-VPR-AMC substrate); format: biochemical
MASP-2 (CCP1-CCP2-SP) = MASP-2 (CCP1-CCP2-SP) (Homo sapiens (Human), UniProt O00187); experiment: biochemical; format: biochemical
[1] = MASP-2 inhibition versus thrombin
[2] = selectivity for MASP-2 inhibition versus thrombin

MASP-2 (CCP1-CCP2-SP), sequence (O00187 445-686): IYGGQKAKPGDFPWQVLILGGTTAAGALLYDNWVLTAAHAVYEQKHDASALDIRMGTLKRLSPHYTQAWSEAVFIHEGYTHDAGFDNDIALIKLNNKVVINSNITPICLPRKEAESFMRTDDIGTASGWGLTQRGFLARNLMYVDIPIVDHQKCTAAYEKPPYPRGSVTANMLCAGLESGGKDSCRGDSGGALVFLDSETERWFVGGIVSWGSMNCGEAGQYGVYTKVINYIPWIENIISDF

| SMILES | Ki (human α-thrombin; read-out: Thrombin Ki) | Ki (MASP-2 (CCP1-CCP2-SP); read-out: MASP-2 Ki) | Ki (MASP-2 (CCP1-CCP2-SP)) | MASP-2 vs. thrombin selectivity (MASP-2 (CCP1-CCP2-SP); [2]) | other results |
| --- | --- | --- | --- | --- | --- |
| C[C@H](NC(=O)[C@@H](CCc1ccccc1)NCC(C)(C)C)C(=O)NCc1ccc(C(=N)N)cc1 [compound 1126] | < 0.5 µM | < 500 nM |  |  | MASP-2 vs. thrombin selectivity (MASP-2 (CCP1-CCP2-SP); [1]): −− (less than 1.0-fold) |
| C[C@H](NC(=O)[C@@H](CCc1ccccc1)NC1CCCCC1)C(=O)NCc1ccc(C(=N)N)cc1 [compound 1130, (R)—N—((S)-1-((4-Carbamimidoylbenzyl)amino)-1-oxopropan-2-yl)-2-(cyclohexylamino)-4-phenylbutanamide Dihydrochloride] | < 0.5 µM | < 500 nM |  |  | MASP-2 vs. thrombin selectivity (MASP-2 (CCP1-CCP2-SP); [1]): −− (less than 1.0-fold) |
| C[C@H](NC(=O)[C@@H](CCc1ccccc1)NCc1ccc(O)cc1)C(=O)NCc1ccc(C(=N)N)cc1 [compound 1140, (R)—N—((S)-1-((4-Carbamimidoylbenzyl)amino)-1-oxopropan-2-yl)-2-((4-hydroxybenzyl)amino)-4-phenylbutanamide Dihydrochloride] | < 0.5 µM | < 500 nM |  |  | MASP-2 vs. thrombin selectivity (MASP-2 (CCP1-CCP2-SP); [1]): −− (less than 1.0-fold) |
| COC(=O)COc1ccc(CN[C@H](CCc2ccccc2)C(=O)N[C@@H](C)C(=O)NCc2ccc(C(=N)N)cc2)cc1 [compound 1151] | < 0.5 µM | < 500 nM |  |  | MASP-2 vs. thrombin selectivity (MASP-2 (CCP1-CCP2-SP); [1]): −− (less than 1.0-fold) |
| C[C@H](NC(=O)[C@@H](CCc1ccccc1)NCc1ccc(N2CCN(C)CC2)cc1)C(=O)NCc1ccc(C(=N)N)cc1 [compound 1152] | < 0.5 µM | < 500 nM |  |  | MASP-2 vs. thrombin selectivity (MASP-2 (CCP1-CCP2-SP); [1]): * (1.0 to 5.0-fold) |
| C[C@H](NC(=O)[C@@H](CCc1ccccc1)NCc1ccccc1N1CCN(C)CC1)C(=O)NCc1ccc(C(=N)N)cc1 [compound 1232, (R)—N—((S)-1-((4-Carbamimidoylbenzyl)amino)-1-oxopropan-2-yl)-2-((2-(4-methylpiperazin-1-yl)benzyl)amino)-4-phenylbutanamide] | < 0.5 µM |  | 500 to 2500 nM | −− (<1.0-fold) |  |
| C[C@H](NC(=O)[C@H](N)CCc1ccccc1)C(=O)NCc1cc(Cl)ccc1OCC(=O)NCCCO [compound 1237, (R)-2-amino-N—((S)-1-((5-chloro-2-(2-((3-hydroxypropyl)amino)-2-oxoethoxy)benzyl)amino)-1-oxopropan-2-yl)-4-phenylbutanamide] |  |  | 10000 to 25000 nM | −− (<1.0-fold) | Ki (human α-thrombin; Thrombin Ki (μM)): 0.5 to 2.5 µM |
| Cc1cc(N)ncc1CNC(=O)[C@H](C)NC(=O)[C@H](N)CCc1ccccc1 [compound 1243, (R)-2-Amino-N—((S)-1-(((6-amino-4-methylpyridin-3-yl)methyl)amino)-1-oxopropan-2-yl)-4-phenylbutanamide] | > 25 µM |  | 10000 to 25000 nM |  |  |
| Cc1cc(CNC(=O)[C@H](C)NC(=O)[C@H](N)CCc2ccccc2)cnc1N [compound 1244, (R)-2-Amino-N—((S)-1-(((6-amino-5-methylpyridin-3-yl)methyl)amino)-1-oxopropan-2-yl)-4-phenylbutanamide] | > 25 µM |  | 500 to 2500 nM | ** (≥5.0 to <25-fold) |  |
| C[C@H](NC(=O)[C@H](N)CCc1ccccc1)C(=O)NCc1cc(Cl)ccc1[N+](=O)[O-] [compound 1246, (R)-2-Amino-N—((S)-1-((5-chloro-2-nitrobenzyl)amino)-1-oxopropan-2-yl)-4-phenylbutanamide] |  |  | 10000 to 25000 nM | * (≥1.0 to <5.0-fold) | Ki (human α-thrombin; Thrombin Ki (μM)): 10 to 25 µM |
| COc1cc(C(=N)N)ccc1CNC(=O)[C@H](C)NC(=O)[C@H](N)CCc1ccccc1 [compound 1251, (R)-2-amino-N—((S)-1-((4-carbamimidoyl-2-methoxybenzyl)amino)-1-oxopropan-2-yl)-4-phenylbutanamide] | < 0.5 µM |  | 500 to 2500 nM | −− (<1.0-fold) |  |
| Cc1ccc([C@H]2CN[C@@H](C(=O)N[C@@H](C)C(=O)NCc3ccc(C(=N)N)cc3)C2)cc1 [compound 1252, (2R,4S)—N—((S)-1-((4-Carbamimidoylbenzyl)amino)-1-oxopropan-2-yl)-4-(p-tolyl)pyrrolidine-2-carboxamide] |  | < 500 nM |  | *** (≥25 to <100-fold) | Ki (human α-thrombin; Thrombin Ki (μM)): 2.5 to 10 µM |
| Cc1cccc([C@H]2CN[C@@H](C(=O)N[C@@H](C)C(=O)NCc3cc(Cl)ccc3O)C2)c1 [compound 1254, (2R,4S)—N—((S)-1-((5-Chloro-2-hydroxybenzyl)amino)-1-oxopropan-2-yl)-4-(m-tolyl)pyrrolidine-2-carboxamide] |  | < 500 nM |  | *** (≥25 to <100-fold) | Ki (human α-thrombin; Thrombin Ki (μM)): 10 to 25 µM |
| C[C@H](NC(=O)[C@@H](CCc1ccccc1)NCc1ccc2cc(O)ccc2c1)C(=O)NCc1ccc(C(=N)N)cc1 [compound 1256, (R)—N—((S)-1-((4-Carbamimidoylbenzyl)amino)-1-oxopropan-2-yl)-2-(((6-hydroxynaphthalen-2-yl)methyl)amino)-4-phenylbutanamide] | < 0.5 µM | < 500 nM |  | * (≥1.0 to <5.0-fold) |  |
| COC(=O)NC(=N)c1ccc(CNC(=O)[C@H](C)NC(=O)[C@H]2C[C@H](c3ccccc3)CN2)cc1 [compound 1258, Methyl (imino(4-(((S)-2-((2R,4R)-4-phenylpyrrolidine-2-carboxamido)propanamido)methyl)phenyl)methyl)carbamate] | > 25 µM |  | 2500 to 10000 nM |  |  |
| C[C@H](NC(=O)[C@H]1C[C@H](c2ccccc2)CN1)C(=O)NCc1ccc(C(=N)NC(=O)OCc2ccccc2)cc1 [compound 1259, Benzyl (imino(4-(((S)-2-((2R,4R)-4-phenylpyrrolidine-2-carboxamido)propanamido)methyl)phenyl)methyl)carbamate] | > 25 µM |  | 2500 to 10000 nM |  |  |
| CCCCCCOC(=O)NC(=N)c1ccc(CNC(=O)[C@H](C)NC(=O)[C@H]2C[C@H](c3ccccc3)CN2)cc1 [compound 1260, Hexyl (imino(4-(((S)-2-((2R,4R)-4-phenylpyrrolidine-2-carboxamido)propanamido)methyl)phenyl)methyl)carbamate] | > 25 µM | 2500 to 10000 nM |  |  |  |
| COc1cccc([C@H]2CN[C@@H](C(=O)N[C@@H](C)C(=O)NCc3ccc(C(=N)N)cc3)C2)c1 [compound 1262, (2R,4S)—N—((S)-1-((4-Carbamimidoylbenzyl)amino)-1-oxopropan-2-yl)-4-(3-methoxyphenyl)pyrrolidine-2-carboxamide] |  | < 500 nM |  | *** (≥25 to <100-fold) | Ki (human α-thrombin; Thrombin Ki (μM)): 0.5 to 2.5 µM |
| C[C@H](NC(=O)[C@H](N)CCc1ccccc1)C(=O)NCc1cc(Cl)ccc1-n1cnnn1 [compound 1325, (R)-2-amino-N—((S)-1-((5-chloro-2-(1H-tetrazol-1-yl)benzyl)amino)-1-oxopropan-2-yl)-4-phenylbutanamide] | < 0.5 µM |  |  | −− (<1.0-fold) |  |
| Cc1cccc(CNC(=O)[C@H](C)NC(=O)[C@H]2C[C@H](Cc3ccccc3)CN2)c1-n1ncnn1 [compound 1437, (2R,4S)-4-Benzyl-N-((S)-1-((3-methyl-2-(2H-tetrazol-2-yl)benzyl)amino)-1-oxopropan-2-yl)pyrrolidine-2-carboxamide] | > 25 µM |  |  | ** (≥5.0 to <25-fold) |  |
| N=C(N)c1ccc2[nH]c(-c3c[nH]cn3)nc2c1 [compound 2000, 2-(1H-imidazol-4-yl)-1H-benzo[d]imidazole-5-carboximidamide dihydrochloride] |  |  | > 25000 nM |  | Ki (human α-thrombin; +Zn, read-out: Thrombin Ki): < 10 µM; Ki (human α-thrombin; Thrombin Ki (μM), +EDTA): > 25 µM; MASP-2 versus thrombin selectivity (MASP-2 (CCP1-CCP2-SP); +Zn): ++ (+Zn) (5.0 to 25-fold); Ki (MASP-2 (CCP1-CCP2-SP); +Zn, read-out: MASP-2 Ki): < 500 nM |
| N=C(N)c1ccc2[nH]c(-c3ccccn3)nc2c1 [compound 2001, 2-(Pyridin-2-yl)-1H-benzo[d]imidazole-5-carboximidamide Dihydrochloride] |  |  | > 25000 nM |  | Ki (human α-thrombin; +Zn, read-out: Thrombin Ki): < 2.5 µM; Ki (human α-thrombin; Thrombin Ki (μM), +EDTA): > 25 µM; MASP-2 versus thrombin selectivity (MASP-2 (CCP1-CCP2-SP); +Zn): ++ (+Zn) (5.0 to 25-fold); Ki (MASP-2 (CCP1-CCP2-SP); +Zn, read-out: MASP-2 Ki): < 500 nM |
| N=C(N)c1ccc2[nH]c(Cc3ccccn3)nc2c1 [compound 2002, 2-(Pyridin-2-ylmethyl)-1H-benzo[d]imidazole-5-carboximidamide Dihydrochloride] |  |  | > 25000 nM |  | Ki (human α-thrombin; +Zn, read-out: Thrombin Ki): < 25 µM; Ki (human α-thrombin; Thrombin Ki (μM), +EDTA): > 25 µM; Ki (MASP-2 (CCP1-CCP2-SP); +Zn, read-out: MASP-2 Ki): < 2500 nM |
| Cc1cccc(-c2nc3cc(C(=N)N)ccc3[nH]2)n1 [compound 2003, 2-(6-methylpyridin-2-yl)-1H-benzo[d]imidazole-5-carboximidamide] |  |  | > 25000 nM |  | Ki (human α-thrombin; +Zn, read-out: Thrombin Ki): < 2.5 µM; Ki (human α-thrombin; Thrombin Ki (μM), +EDTA): > 25 µM; MASP-2 versus thrombin selectivity (MASP-2 (CCP1-CCP2-SP); +Zn): +++ (+Zn) (25 to 100-fold); Ki (MASP-2 (CCP1-CCP2-SP); +Zn, read-out: MASP-2 Ki): < 50 nM |
| Cc1cccnc1-c1nc2cc(C(=N)N)ccc2[nH]1 [compound 2004, 2-(3-methylpyridin-2-yl)-1H-benzo[d]imidazole-5-carboximidamide dihydrochloride] |  |  | > 25000 nM |  | Ki (human α-thrombin; +Zn, read-out: Thrombin Ki): < 0.5 µM; Ki (human α-thrombin; Thrombin Ki (μM), +EDTA): > 25 µM; MASP-2 versus thrombin selectivity (MASP-2 (CCP1-CCP2-SP); +Zn): + (+Zn) (1.0 to 5.0-fold); Ki (MASP-2 (CCP1-CCP2-SP); +Zn, read-out: MASP-2 Ki): < 500 nM |
| Cc1ccnc(-c2nc3cc(C(=N)N)ccc3[nH]2)c1 [compound 2005, 2-(4-methylpyridin-2-yl)-1H-benzo[d]imidazole-5-carboximidamide dihydrochloride] |  |  | > 25000 nM |  | Ki (human α-thrombin; +Zn, read-out: Thrombin Ki): < 0.05 µM; Ki (human α-thrombin; Thrombin Ki (μM), +EDTA): > 25 µM; MASP-2 versus thrombin selectivity (MASP-2 (CCP1-CCP2-SP); +Zn): + (+Zn) (1.0 to 5.0-fold); Ki (MASP-2 (CCP1-CCP2-SP); +Zn, read-out: MASP-2 Ki): < 50 nM |
| Nc1ccc2[nH]c(Cc3nc4cc(N)ccc4[nH]3)nc2c1 [compound 2006] |  |  | > 25000 nM |  | Ki (human α-thrombin; +EDTA, read-out: Thrombin Ki): > 25 µM; Ki (human α-thrombin; +Zn, read-out: Thrombin Ki): > 25 µM; MASP-2 versus thrombin selectivity (MASP-2 (CCP1-CCP2-SP); +Zn): + (+Zn) (1.0 to 5.0-fold); Ki (MASP-2 (CCP1-CCP2-SP); +Zn, read-out: MASP-2 Ki): < 10000 nM |
| CCc1ccc(-c2nc3cc(C(=N)N)ccc3[nH]2)nc1 [compound 2007, 2-(5-ethylpyridin-2-yl)-1H-benzo[d]imidazole-5-carboximidamide dihydrochloride] |  |  | > 25000 nM |  | Ki (human α-thrombin; +Zn, read-out: Thrombin Ki): < 2.5 µM; Ki (human α-thrombin; Thrombin Ki (μM), +EDTA): > 25 µM; MASP-2 versus thrombin selectivity (MASP-2 (CCP1-CCP2-SP); +Zn): ++ (+Zn) (5.0 to 25-fold); Ki (MASP-2 (CCP1-CCP2-SP); +Zn, read-out: MASP-2 Ki): < 500 nM |
